Results on six compounds are retold here after ChEMBL document CHEMBL2069208, “Isolactarane and sterpurane sesquiterpenoids from the basidiomycete Phlebia uda” (J Nat Prod, 2012).

SMILES strings stand for the structures. pIC50: −log10 of the molar value. The source made the active and inactive calls. The rule behind the calls is not given here.

The test system of assay [1] is Jurkat. As to the kind of experiment: Growth inhibition of human Jurkat cells. It is filed as functional, cell-based.
The subject of assay [2] is HepG2. Nature of the assay: Growth inhibition of human HepG2 cells up to 50 ug/ml. Type of assay: functional, cell-based.
Assay [3] relates to Pyricularia grisea. Nature of the assay: Inhibition of spore germination of Magnaporthe grisea assessed as compound concentration causing 75 to 100% germination inhibition. It is filed as functional.
Assay [4] relates to Fusarium graminearum. Nature of the assay: Inhibition of spore germination of Fusarium graminearum assessed as compound concentration causing 75 to 100% germination inhibition. Type of assay: functional.
The subject of assay [5] is Phytophthora infestans. As to the kind of experiment: Inhibition of spore germination of Phytophthora infestans assessed as compound concentration causing 75 to 100% germination inhibition. Type of assay: functional.
The subject of assay [6] is Botrytis cinerea. Nature of the assay: Inhibition of spore germination of Botrytis cinerea assessed as compound concentration causing 75 to 100% germination inhibition. It is filed as functional.
For assay [7], the system named is Jurkat. As to the kind of experiment: Growth inhibition of human Jurkat cells up to 50 ug/mL. It is filed as functional, cell-based.

Usually pIC50 stands for −log10 of the IC50, conventionally taken in molar units.

On to `CC1=C2C[C@@](C)(C(=O)O)C[C@H]2C[C@]2(C)CC[C@]12O`, for which, in assay [1], the pIC50 is 3.80. The “growth inhibition (GI)” value in assay [2] is “inactive”.
For the compound `CC1(C)CC2=C(C=O)[C@@]34C[C@]3(C[C@@H]2C1)C(=O)OC4O` (stereo not given in full), the INH in assay [3] came to 10 µg/mL; in assay [4], 10 µg/mL; in assay [5], 25 µg/mL; in assay [6], 50 µg/mL.
As to `CC1=C2C[C@@](C)(CO)C[C@H]2C[C@]2(C)CC[C@]12O`, the “growth inhibition (GI)” value in assay [2] and in assay [7] was “inactive” in each case.
Regarding `CCC(C)CCOC1OC(=O)[C@]23C[C@@H]4CC(C)(C)CC4=C(C=O)[C@]12C3` (mixture of isomers) [UDALACTARANE A], the pIC50 in assay [1] is 4.00. Further, the “growth inhibition (GI)” value in assay [2] is “inactive”. Moreover, the INH in assay [3] was 10 µg/mL; in assay [4] it was 10 µg/mL; in assay [5], 100 µg/mL; in assay [6] it was more than 100 µg/mL.
`CC1=C2C[C@@](C)(COC3OC(=O)[C@]45C[C@@H]6CC(C)(C)CC6=C(C=O)[C@]34C5)C[C@H]2C[C@]2(C)CC[C@]12O` (mixture of isomers) [UDALACTARANE B] had a pIC50 in assay [1] of 4.38. Further, the “growth inhibition (GI)” value in assay [2] was “inactive”. Further, the INH is 5 µg/mL in assay [4], 10 µg/mL in assay [5] and more than 100 µg/mL in assay [6].
`Cc1cc(C2CCCCC2)n(O)c(=O)c1` [CICLOPIROX]: the INH in assay [6] is 50 µg/mL.
